Reference: patent US11971413B2, “Peptoid, and its preparation method and use” (BEIJING BOE TECHNOLOGY DEVELOPMENT CO., LTD., priority 2019, dated 2024)
Where a SMILES comes first, the peptide text is derived from it. [ ]: non-standard residue; d: D form. ξ: configuration not given here. N(CH2CH2COOH)Gly = O=C(O)CCNCC(=O)O; Gly(N-CH2CH2OH) = O=C(O)CNCCO; Nleu = CC(C)CNCC(=O)O; Nlys = NCCCCNCC(=O)O; ξC = NC(CS)C(=O)O

Assays:
[1] = system: Huh7 cell line with high expression of an EpCAM protein; experiment: Cell-level imaging with fluorescently labeled peptoid molecular probe, laser confocal microscopy, Huh7 cells; type: cell-based; details: probe incubated at 4° C. for 30 min, confocal 100× oil objective
Description: (§1) The specific steps for cell-level imaging using a fluorescently labeled molecular probe with a peptoid were as follows: • (1) Cell culture and passage: The cell models were an Huh7 cell line with high expression of an EpCAM protein and a human embryonic kidney 293T cell line with low expression of EpCAM (Shanghai Biological Technology Co., Ltd. enzyme research); Huh7 and 293T cells were cultured in a constant temperature incubator (5% CO2) at 37° C. with RPMI1640 medium and DMEM/High glucose medium containing 10% fetal bovine serum and 1% penicillin and streptomycin, respectively; • (2) When the degree of cell fusion reached more than 90%, the cells were passaged. […]

[2] = system: human embryonic kidney 293T cell line with low expression of EpCAM; experiment: Cell-level imaging with fluorescently labeled peptoid molecular probe, laser confocal microscopy, 293T control cells; type: cell-based; details: 293T cells (low EpCAM, control group), probe incubated at 4° C. for 30 min, confocal 100× oil objective
Description: as §1

With `CC(C)CNCC(=O)N(CCCCN)CC(=O)N(CCO)CC(=O)N(CCC(=O)O)CC(=O)N(CCCCN)CC(=O)N(CCCCN)CC(=O)NC(CS)C(N)=O` (centres unmarked) [Example 1] (H-[Nleu][Nlys][Gly(N-CH2CH2OH)][N(CH2CH2COOH)Gly][Nlys][Nlys][ξC]-NH2) the “FITC green fluorescence on the cell membrane” value [1] was “Significant green fluorescence” and the “FITC green fluorescence on the cell membrane” value [2] was “weak green fluorescence or no green fluorescence”.
